In publication PMC4823724 (Scientific Reports, 2016):

Experiments:
RpfG [1] = system: RpfG
RpfG [2] = system: RpfG; remark: listed apart in the source

RpfG, sequence (G7TEN6 1-378): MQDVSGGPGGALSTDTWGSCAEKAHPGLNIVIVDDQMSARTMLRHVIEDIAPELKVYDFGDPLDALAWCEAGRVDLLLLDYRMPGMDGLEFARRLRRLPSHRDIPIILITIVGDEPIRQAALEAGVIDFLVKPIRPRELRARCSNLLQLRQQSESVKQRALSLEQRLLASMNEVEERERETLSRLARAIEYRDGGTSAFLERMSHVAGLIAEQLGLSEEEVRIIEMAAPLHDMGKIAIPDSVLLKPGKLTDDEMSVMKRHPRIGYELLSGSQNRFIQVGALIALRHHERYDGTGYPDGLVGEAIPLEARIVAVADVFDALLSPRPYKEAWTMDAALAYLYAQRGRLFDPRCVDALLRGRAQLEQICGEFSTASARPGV

Compound	colorimetric phosphodiesterase assay at 410 nm (RpfG [1])	HPLC phosphodiesterase assay (RpfG [2])
O=[N+]([O-])c1ccc(OP(=O)(O)Oc2ccc([N+](=O)[O-])cc2)cc1 [bis(p-nitrophenyl) phosphate]	RpfG efficiently converted bis(p-nitrophenyl) phosphate into p-nitrophenol	
Nc1nc2c(ncn2[C@@H]2O[C@@H]3COP(=O)(O)O[C@H]4[C@@H](O)[C@H](n5cnc6c(=O)[nH]c(N)nc65)O[C@@H]4COP(=O)(O)O[C@H]3[C@H]2O)c(=O)[nH]1 [c-di-GMP]		degraded product pGpG was produced when RpfG was incubated with c-di-GMP
